This test deals with T1, A2AR (hADORA2A-HEK293 cells) (Homo sapiens, UniProt P29274).
T1 construct: expressed in transfected cells; host or cells: HEK293 (hADORA2A-HEK293)
Kind of test: functional cAMP production assay: NECA stimulation of cAMP production and its inhibition by A2AR antagonists. The test is classed as cell-based. The protocol:
The antagonistic activities of the triazolotriazine derivatives of the present invention were measured in a functional cAMP production assay. The assay consists of NECA stimulation of cAMP production and its inhibition by A2AR antagonists in A2AR-expressing HEK293 cells (hADORA2A-HEK293). All cells were cultured in complete medium at 37° C. in 5% CO2. The cells were detached with pancreatin and collected at 200 g for 5 min. After resuspending the cells in fresh complete medium, the cell viability is counted using the trypan blue exclusion method. […] After the cells were diluted with Hank's buffered saline solution containing HEPES (5 mM), BSA stabilizer (0.1%) and […] Rolipram (10 μM), cells were loaded into white opaque 384-well plates (˜500 cells/well, 10 μl/well) and incubated with test compound at a suitable concentration range (11 concentrations) for 20 min at room temperature. Then the A2A receptor agonist NECA (final concentration=EC80, which was determined in the same experiment slightly earlier) was added to the sample and the mixture was incubated again for 30 min at 37° C. […] The inhibition rate (%) was calculated according to the following formula. The IC50 values were calculated from concentration-inhibition (%) curves after log transformation.
A general note: Cyclic AMP is a second messenger, typically raised through Gs and lowered through Gi signalling.

Setting [1] is: A2AR-expressing HEK293 cells (hADORA2A-HEK293), NECA at EC80, TR-FRET cAMP readout, read-out: A2AR Potency (IC50, inhibition of NECA-stimulated cAMP production).

SMILES strings stand for the structures. Like-named read-outs stand apart in the source and are kept apart here.

T1 sequence (P29274 whole entry): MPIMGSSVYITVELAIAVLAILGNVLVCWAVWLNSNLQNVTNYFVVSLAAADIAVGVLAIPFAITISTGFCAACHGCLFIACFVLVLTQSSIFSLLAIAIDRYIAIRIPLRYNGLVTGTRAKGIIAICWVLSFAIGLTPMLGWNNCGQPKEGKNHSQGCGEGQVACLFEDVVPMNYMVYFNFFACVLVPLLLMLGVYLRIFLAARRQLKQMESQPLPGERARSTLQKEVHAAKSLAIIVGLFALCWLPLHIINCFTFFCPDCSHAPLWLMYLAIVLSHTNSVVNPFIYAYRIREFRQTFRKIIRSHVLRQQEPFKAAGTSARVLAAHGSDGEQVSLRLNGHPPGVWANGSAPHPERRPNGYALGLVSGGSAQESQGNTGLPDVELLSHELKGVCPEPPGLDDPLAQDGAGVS

`Nc1nc(NCCc2ccc(OCCN3CC[C@@H](F)C3)cc2)nc2nc(-c3ccco3)nn12` [Example 309, (R)-N5-(4-(2-(3-Fluoropyrrolidin-1-yl)ethoxy)phenethyl)-2-(furan-2-yl)-[1,2,4]triazolo[1,5-a][1,3,5]triazine-5,7-diamine]: under setting [1], the 50% inhibitory concentration (IC50) is 0.0305 µM.

For `Nc1nc(NCCc2ccc(OCCc3ccccn3)cc2)nc2nc(-c3ccco3)nn12` [Example 90, 2-(Furan-2-yl)-N5-(4-(2-(pyridin-2-yl)ethoxy)phenethyl)-[1,2,4]triazolo[1,5-α][1,3,5]triazine-5,7-diamine], the IC50 under setting [1] was found to be 0.0109 µM.

Turning to `CN(C)[C@@H]1CCN(CCOc2ccc(CCNc3nc(N)n4nc(-c5ccco5)nc4n3)cc2)C1` [Example 214, N5-((R)-4-(2-(3-(Dimethylamino)pyrrolidin-1-yl)ethoxy)phenethyl)-2-(furan-2-yl)-[1,2,4]triazolo[1,5-a][1,3,5]triazine-5,7-diamine], the 50% inhibitory concentration (IC50) under setting [1] was 0.0352 µM.

As to `COCCOCCOCCOCCOCCOCCOCCOCCOCCOc1ccc(CCNc2nc(N)n3nc(-c4ccco4)nc3n2)cc1` [Example 117, N5-(4-(2-(2-(2-(2-(2-(2-(2-(2-(2-Methoxyethoxy)ethoxy)ethoxy)ethoxy)ethoxy)ethoxy)-ethoxy)ethoxy)ethoxy)phenethyl)-2-(furan-2-yl)-[1,2,4]triazolo[1,5-a][1,3,5]triazine-5,7-diamine], the IC50 under setting [1] amounted to 0.038 µM.

With `CN1CCN(CCC(=O)Nc2ccc(CCNc3nc(N)n4nc(-c5ccco5)nc4n3)cc2)CC1` [Example 229, N-(4-(2-((7-Amino-2-(furan-2-yl)-[1,2,4]triazolo[1,5-a][1,3,5]triazin-5-yl)amino)ethyl)-phenyl)-3-(4-methylpiperazin-1-yl)propanamide], the IC50 under setting [1] was determined as 0.0253 µM.

For `CN1CCN(CC(=O)Nc2ccc(CCNc3nc(N)n4nc(-c5ccco5)nc4n3)cc2)CC1` [Example 321, N-(4-(2-((7-Amino-2-(furan-2-yl)-[1,2,4]triazolo[1,5-a][1,3,5]triazin-5-yl)amino)ethyl)-phenyl)-2-(4-methylpiperazin-1-yl)acetamide], the IC50 under setting [1] amounted to 0.0407 µM.

As for `Nc1nc(NCCc2ccc(OCCN3CC3)cc2)nc2nc(-c3ccco3)nn12` [Example 124, N5-(4-(2-(Aziridin-1-yl)ethoxy)phenethyl)-2-(furan-2-yl)-[1,2,4]triazolo[1,5-a][1,3,5]triazine-5,7-diamine], half-maximal inhibition (IC50) required 0.0084 µM.

`CN1CCC(COc2ccc(CCNc3nc(N)n4nc(-c5ccco5)nc4n3)cc2)CC1` [Example 121, N5-(4-((1-Methylpiperidin-4-yl)methoxy)phenethyl)-2-(furan-2-yl)-[1,2,4]triazolo[1,5-a][1,3,5]triazine-5,7-diamine]: the IC50 under setting [1] is 0.0141 µM.

In the case of `Nc1nc(NCCc2ccc(OCCCN3CCOCC3)cc2)nc2nc(-c3ccco3)nn12` [Example 86, 2-(Furan-2-yl)-N5-(4-(3-morpholinopropoxy)phenethyl)-[1,2,4]triazolo[1,5-α][1,3,5]triazine-5,7-diamine], under setting [1], the IC50 turned out to be 0.0143 µM.

Regarding `CN1CCC(C(=O)Nc2ccc(CCNc3nc(N)n4nc(-c5ccco5)nc4n3)cc2)CC1` [Example 241, N-(4-(2-((7-Amino-2-(furan-2-yl)-[1,2,4]triazolo[1,5-a][1,3,5]triazin-5-yl)amino)ethyl)-phenyl)-1-methylpiperidine-4-carboxamide], under setting [1], the IC50 came out at 0.0112 µM.

On to `Nc1nc(NCCc2ccc(OCc3ccccn3)cc2)nc2nc(-c3ccco3)nn12` [Example 26, 2-(Furan-2-yl)-N5-(4-(pyridin-2-ylmethoxy)phenethyl)-[1,2,4]triazolo[1,5-α][1,3,5]triazine-5,7-diamine], for which the IC50 under setting [1] turned out to be 0.008 µM.

Regarding `Nc1nc(NCCc2ccccn2)nc2nc(-c3ccco3)nn12` [Example 302, 2-(Furan-2-yl)-N5-(2-(pyridin-2-yl)ethyl)-[1,2,4]triazolo[1,5-a][1,3,5]triazine-5,7-diamine], the IC50 under setting [1] was 0.0127 µM.

Consider `Nc1nc(NCCc2ccc(OCCN3CCOCC3)cc2)nc2nc(-c3ccco3)nn12` [Example 82, 2-(Furan-2-yl)-N5-(4-(2-morpholinoethoxy)phenethyl)-[1,2,4]triazolo[1,5-α][1,3,5]triazine-5,7-diamine], for which the IC50 under setting [1] came to 0.009 µM.

For `Nc1nc(NCCc2ccc(OCCOCC(F)(F)F)cc2)nc2nc(-c3ccco3)nn12` [Example 314, 2-(Furan-2-yl)-N5-(4-(2-(2,2,2-trifluoroethoxy)ethoxy)phenethyl)-[1,2,4]triazolo[1,5-a][1,3,5]triazine-5,7-diamine], the IC50 under setting [1] was 0.0154 µM.

As to `Nc1nc(NCCc2ccc(OCCF)cc2)nc2nc(-c3ccco3)nn12` [Example 142, N5-(4-(2-Fluoroethoxy)phenethyl)-2-(furan-2-yl)-[1,2,4]triazolo[1,5-a][1,3,5]triazine-5,7-diamine], the concentration for half-maximal inhibition (IC50) under setting [1] stood at 0.00809 µM.

For the compound `Nc1nc(NCCc2ccc(OCCOCCN3CCOCC3)cc2)nc2nc(-c3ccco3)nn12` [Example 94, 2-(Furan-2-yl)-N5-(4-(2-(2-morpholinoethoxy)ethoxy)phenethyl)-[1,2,4]triazolo[1,5-α][1,3,5]triazine-5,7-diamine], the IC50 under setting [1] was 0.016 µM.

On to `Nc1nc(NCCc2ccc(OCc3ccncc3)cc2)nc2nc(-c3ccco3)nn12` [Example 29, 2-(Furan-2-yl)-N5-(4-(pyridin-4-ylmethoxy)phenethyl)-[1,2,4]triazolo[1,5-α][1,3,5]triazine-5,7-diamine], for which, under setting [1], the IC50 was 0.007 µM.

In the case of `Nc1nc(NCCc2ccc(OCc3cccnc3)cc2)nc2nc(-c3ccco3)nn12` [Example 32, 2-(Furan-2-yl)-N5-(4-(pyridin-3-ylmethoxy)phenethyl)-[1,2,4]triazolo[1,5-α][1,3,5]triazine-5,7-diamine], the IC50 under setting [1] worked out at 0.008 µM.

As for `Nc1nc(NCCc2ccc(OCCN3CCCCCC3)cc2)nc2nc(-c3ccco3)nn12` [Example 51, N5-(4-(2-(Azepan-1-yl)ethoxy)phenethyl)-2-(furan-2-yl)-[1,2,4]triazolo[1,5-α][1,3,5]triazine-5,7-diamine], under setting [1], the IC50 turned out to be 0.0254 µM.

In the case of `CN(CCOc1ccc(CCNc2nc(N)n3nc(-c4ccco4)nc3n2)cc1)Cc1cccnc1` [Example 284, 2-(Furan-2-yl)-N5-(4-(2-(methyl(pyridin-3-ylmethyl)amino)ethoxy)phenethyl)-[1,2,4]triazolo[1,5-a][1,3,5]triazine-5,7-diamine], under setting [1], the IC50 is 0.0323 µM.

On to `Nc1nc(NCCc2ccc(NC(=O)CN3CCOCC3)cc2)nc2nc(-c3ccco3)nn12` [Example 320, N-(4-(2-((7-Amino-2-(furan-2-yl)-[1,2,4]triazolo[1,5-a][1,3,5]triazin-5-yl)amino)ethyl)-phenyl)-2-morpholinoacetamide], for which, under setting [1], the IC50 stood at 0.0115 µM.

Consider `Nc1nc(NCCc2ccc(NC(=O)CCN3CCCC3)cc2)nc2nc(-c3ccco3)nn12` [Example 226, N-(4-(2-((7-Amino-2-(furan-2-yl)-[1,2,4]triazolo[1,5-a][1,3,5]triazin-5-yl)amino)ethyl)-phenyl)-3-(pyrrolidin-1-yl)propanamide], for which the IC50 under setting [1] is 0.02 µM.

Consider `Nc1nc(NCCc2ccncn2)nc2nc(-c3ccco3)nn12` [Example 44, 2-(Furan-2-yl)-N5-(2-(pyrimidin-4-yl)ethyl)-[1,2,4]triazolo[1,5-α][1,3,5]triazine-5,7-diamine], for which the IC50 under setting [1] was 0.0638 µM.

In the case of `Nc1nc(NCCc2ccc(OCCN3CCC3)cc2)nc2nc(-c3ccco3)nn12` [Example 98, N5-(4-(2-(Azetidin-1-yl)ethoxy)phenethyl)-2-(furan-2-yl)-[1,2,4]triazolo[1,5-α][1,3,5]triazine-5,7-diamine], the IC50 under setting [1] is 0.0485 µM.

For the compound `CC(C)(CO)C(=O)Nc1ccc(CCNc2nc(N)n3nc(-c4ccco4)nc3n2)cc1` [Example 325, N-(4-(2-((7-Amino-2-(furan-2-yl)-[1,2,4]triazolo[1,5-a][1,3,5]triazin-5-yl)amino)ethyl)-phenyl)-3-hydroxy-2,2-dimethylpropanamide], under setting [1], the IC50 came to 0.0119 µM.

A word on the IC50: it is the concentration that inhibits the measured activity by half.

Values taken from patent US11845751B2, “Triazolotriazine derivatives as A2A receptor antagonists” (ZHEJIANG VIMGREEN PHARMACEUTICALS, LTD., priority 2018, dated 2023).
